Experimental data taken from patent EP0563112B1, “ENHANCED BIOAVAILABILITY PHARMACEUTICAL COMPOSITION CONTAINING PROBUCOL” (MERRELL DOW PHARMACEUTICALS INC., priority 1990, dated 1992).

Columns and labels:
[1] = Solubility determination of probucol in oils and binary solvent systems (HPLC assay); type: physicochemical
Source text: Captex® 200 is a propylene glycol ester of caprylic (C₈) and capric (C₁₀) fatty acids obtained by fractionation of certain coconut oil fatty acids and is known generically as propylene glycol dicaprylate/dicaprate. Captex® 300 is a caprylic and capric acid triglyceride obtained by fractionation and subsequent esterification of coconut oil and is known generically as caprylic/capric triglyceride. Capmul® MCM is a mono and diglyceride of caprylic and capric acids.
Eight grams of each oil were transferred into a glass tube with a teflon liner screw cap, and 2.5 g of probucol were added to each tube. The tubes were capped and shaken by hand until the probucol particles were wetted. The tubes were then rotated for at least 48 hours on a test tube rotating apparatus. The solubility of probucol was determined using a high performance liquid chromatography (HPLC) assay procedure.
In order to determine if the solubility of probucol could be enhanced by incorporating absolute ethanol in the oil, three binary systems: safflower oil:ethanol (90:10), polyethylene glycol (PEG) 400:ethanol (90:10, 80:20, 70:30), and Captex® 200:ethanol (95:5, 90:10, 85:15, 80:20, and 75:25) were evaluated. The solubility data shown in Table II indicate that in each case the solubility of probucol increased in the presence of ethanol.

[2] = Heeg and Tachizawa 1980; cited from earlier work

Solubility (%w/v) ([1]; Captex® 200:Ethanol 75:25): 26.0 %w/v
Solubility (%w/v) ([1]; Captex® 200:Ethanol 80:20): 26.0 %w/v
Solubility (%w/v) ([1]; Captex® 200:Ethanol 85:15): 25.0 %w/v
Solubility (%w/v) ([1]; Captex® 200:Ethanol 90:10): 24.0 %w/v
Solubility (%w/v) ([1]; Captex® 200:Ethanol 95:5): 23.0 %w/v
Solubility (%w/v) ([1]; PEG 400 100:00): 2.8 %w/v
Solubility (%w/v) ([1]; PEG 400:Ethanol 80:20): 9.5 %w/v
Solubility (%w/v) ([1]; PEG 400:Ethanol 90:10): 5.8 %w/v
Solubility (%w/v) ([1]; PEG 400 Ethanol 70:30): 13.1 %w/v
Solubility (%w/v) ([1]; Safflower Oil:Ethanol 90:10): 11.5 %w/v
Solubility (%w/v) ([1]; in Capmul® MCM): 6.3 % w/v
Solubility (%w/v) ([1]; in Captex® 200): 18.2 % w/v
Solubility (%w/v) ([1]; in Captex® 300): 12.5 % w/v
Solubility (%w/v) ([1]; in Corn oil): 5.8 % w/v
Solubility (%w/v) ([1]; in Olive oil): 5.5 % w/v
Solubility (%w/v) ([1]; in Peanut oil): 5.6 % w/v
Solubility (%w/v) ([1]; in Safflower oil): 5.9 % w/v
Solubility (%w/v) ([1]; in Sunflower oil): 5.8 % w/v
Solubility (%w/v) ([1]; in Vegetable oil): 5.8 % w/v
SMILES: CC(C)(Sc1cc(C(C)(C)C)c(O)c(C(C)(C)C)c1)Sc1cc(C(C)(C)C)c(O)c(C(C)(C)C)c1 [probucol, 2,2'-bis (3,5-di-tertiarybutyl-4-hydroxyphenylthio)propane]
bioavailability of probucol from tablet dosage form [2]: 2-8%
